The supplement of paper PMC11061612

Assays:
[1] = system: MKN1 (Gastric Carcinoma); experiment: Bliss excess, mean over the matrix (fraction); higher = more synergy
Method in brief: (§1)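 Cell lines grown in DMEM/F12 or RPMI with 10% FBS were plated in 1536-well plates and held 24 hours at 37°C, 5% CO2 before 72 hours of exposure to two-drug dose matrices, with DMSO typically at 0.2%. CellTiter-Glo 2.0 luminescence gave viability, which was converted to inhibition. Vehicle wells were set to 0 and blank wells to 1. Combination Emax is the second-highest inhibition in the matrix, and Bliss excess is the observed combination effect minus the expected EA + EB − EA·EB, where EA and EB are the single-agent effects.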

[2] = system: NCI-H841 (Small Cell Lung Carcinoma); experiment: as above
Method in brief: as §1

[3] = system: 769-P (Kidney Carcinoma); experiment: combination Emax (second highest fraction inhibited in the dose matrix, 72 h); higher = more inhibition; extreme values may be limits of the assay
Method in brief: as §1

[4] = system: EB2 (Burkitt's Lymphoma); experiment: as above
Method in brief: as §1

[5] = system: HCC1395 (Breast Carcinoma); experiment: as above
Method in brief: as §1

[6] = system: KYSE-220 (Esophageal Squamous Cell Carcinoma); experiment: as above
Method in brief: as §1

[7] = system: MKN1 (Gastric Carcinoma); experiment: as above
Method in brief: as §1

[8] = system: NCI-H441 (Lung Adenocarcinoma); experiment: as above
Method in brief: as §1

[9] = system: NCI-H841 (Small Cell Lung Carcinoma); experiment: as above
Method in brief: as §1
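For Bliss excess, mean over the matrix in this document: after 72 h of two-drug dosing.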

Compound	Bliss excess [1]	Bliss excess [2]	combination Emax [3]	combination Emax [4]	combination Emax [5]	combination Emax [6]	combination Emax [7]	combination Emax [8]	combination Emax [9]
C=CCn1c(=O)c2cnc(Nc3ccc(N4CCN(C)CC4)cc3)nc2n1-c1cccc(C(C)(C)O)n1 [AZD1775] + CCc1c2c(nc3ccc(O)cc13)-c1cc3c(c(=O)n1C2)COC(=O)[C@]3(O)CC [SN-38] (first compound max 1 µM, partner max 0.3 µM)	-0.0056	-0.0421	0.881	0.941	0.733	0.909	0.869	0.685	0.66
C=CCn1c(=O)c2cnc(Nc3ccc(N4CCN(C)CC4)cc3)nc2n1-c1cccc(C(C)(C)O)n1 [AZD1775] + Nc1ccn([C@@H]2O[C@H](CO)[C@@H](O)C2(F)F)c(=O)n1 [Gemcitabine] (first compound max 1 µM, partner max 0.3 µM)	0.0171	0.0425	0.868	0.942	0.515	0.793	0.927	0.55	0.726
CN(CCO)CC[C@H](CSc1ccccc1)Nc1ccc(S(=O)(=O)NC(=O)c2ccc(N3CCC([C@@H](O)c4ccccc4-c4ccc(Cl)cc4)CC3)cc2)cc1S(=O)(=O)C(F)(F)F [AZD4320] + CS(=O)(=O)CCNCc1ccc(-c2ccc3ncnc(Nc4ccc(OCc5cccc(F)c5)c(Cl)c4)c3c2)o1 [Lapatinib] (first compound max 1 µM, 7x7, partner max 10 µM)	0.046	-0.0037	0.989	0.293	0.96	0.967	0.888	0.479	0.237
Cc1c2c(nn1C)CSCc1cc(n(C)n1)CSc1cc(c3ccccc3c1)OCCCc1c(C(=O)O)n(C)c3c-2c(Cl)ccc13 [AZD5991] + CC(=O)O[C@H]1C(=O)[C@@]2(C)[C@H]([C@H](OC(=O)c3ccccc3)[C@]3(O)C[C@H](OC(=O)[C@H](O)[C@@H](NC(=O)c4ccccc4)c4ccccc4)C(C)=C1C3(C)C)[C@]1(OC(C)=O)CO[C@@H]1C[C@@H]2O [Paclitaxel] (first compound max 1 µM, 7x7, partner max 3 µM)	-0.103	0.0663	0.789	0.666	0.933	0.745	0.824	0.401	0.973
Cc1c2c(nn1C)CSCc1cc(n(C)n1)CSc1cc(c3ccccc3c1)OCCCc1c(C(=O)O)n(C)c3c-2c(Cl)ccc13 [AZD5991] + CS(=O)(=O)CCNCc1ccc(-c2ccc3ncnc(Nc4ccc(OCc5cccc(F)c5)c(Cl)c4)c3c2)o1 [Lapatinib] (first compound max 1 µM, 7x7, partner max 10 µM)	-0.0016	-0.0161	0.917	0.283	0.94	0.933	0.53	0.229	0.3
Cc1c2c(nn1C)CSCc1cc(n(C)n1)CSc1cc(c3ccccc3c1)OCCCc1c(C(=O)O)n(C)c3c-2c(Cl)ccc13 [AZD5991] + Nc1ccn([C@@H]2O[C@H](CO)[C@@H](O)C2(F)F)c(=O)n1 [Gemcitabine] (first compound max 1 µM, 7x7, partner max 0.3 µM)	-0.0205	0.0135	0.701	0.923	–	0.724	0.624	0.519	0.567
C[C@@H]1COCCN1c1cc(C2([S@](C)(=N)=O)CC2)nc(-c2ccnc3[nH]ccc23)n1 [AZD6738] + C1CC(C1)(C(=O)[O-])C(=O)[O-].N.N.[Pt+2] [Carboplatin] (first compound max 10 µM, 7x7, partner max 10 µM)	-0.0424	-0.0587	0.878	0.76	0.586	0.827	0.85	0.394	0.503
C[C@@H]1COCCN1c1cc(C2([S@](C)(=N)=O)CC2)nc(-c2ccnc3[nH]ccc23)n1 [AZD6738] + Nc1ccn([C@@H]2O[C@H](CO)[C@@H](O)C2(F)F)c(=O)n1 [Gemcitabine] (first compound max 10 µM, 7x7, partner max 0.3 µM)	0.0369	0.0975	0.865	0.942	0.693	0.857	0.951	0.568	0.829
C[C@@H](Nc1cc(F)cc(F)c1)c1cc(C(=O)N(C)C)cc2c(=O)cc(N3CCOCC3)oc12 [AZD8186] + C1CN(CCC1(C(=O)N[C@@H](CCO)C2=CC=C(C=C2)Cl)N)C3=NC=NC4=C3C=CN4 [AZD5363] (first compound max 10 µM, 7x7, partner max 10 µM)	-0.0304	-0.025	0.338	0.552	0.414	0.445	0.491	0.28	0.293
C[C@@H](Nc1cc(F)cc(F)c1)c1cc(C(=O)N(C)C)cc2c(=O)cc(N3CCOCC3)oc12 [AZD8186] + CC(=O)c1c(C)c2cnc(Nc3ccc(N4CCNCC4)cn3)nc2n(C2CCCC2)c1=O [Palbociclib] (first compound max 10 µM, 7x7, partner max 10 µM)	0.0017	0.0118	0.755	0.582	0.382	0.38	0.674	0.447	0.266
C[C@@H](Oc1cc(-c2cnn(C3CCNCC3)c2)cnc1N)c1c(Cl)ccc(F)c1Cl [Crizotinib] + CC1=C(C(=CC=C1)Cl)NC(=O)C2=CN=C(S2)NC3=CC(=NC(=N3)C)N4CCN(CC4)CCO [Dasatinib] (first compound max 10 µM, 7x7, partner max 2 µM)	0.0586	-0.0089	0.961	0.591	0.88	0.968	0.866	0.63	0.301
C[C@@H](Oc1cc(-c2cnn(C3CCNCC3)c2)cnc1N)c1c(Cl)ccc(F)c1Cl [Crizotinib] + Cn1cnc2c(F)c(Nc3ccc(Br)cc3Cl)c(C(=O)NOCCO)cc21 [Selumetinib] (first compound max 10 µM, 7x7, partner max 10 µM)	0.0001	-0.0528	0.875	0.566	0.491	0.973	0.561	0.415	0.202
CS(=O)(=O)CCNCc1ccc(-c2ccc3ncnc(Nc4ccc(OCc5cccc(F)c5)c(Cl)c4)c3c2)o1 [Lapatinib] + Cn1cnc2c(F)c(Nc3ccc(Br)cc3Cl)c(C(=O)NOCCO)cc21 [Selumetinib] (first compound max 10 µM, 7x7, partner max 10 µM)	-0.002	0.0251	0.945	0.324	0.846	0.954	0.596	0.32	0.303
O=C(c1cc(Cc2n[nH]c(=O)c3ccccc23)ccc1F)N1CCN(C(=O)C2CC2)CC1 [Olaparib] + CC1(C)CCC(CN2CCN(c3ccc(C(=O)NS(=O)(=O)c4ccc(NCC5CCOCC5)c([N+](=O)[O-])c4)c(Oc4cnc5[nH]ccc5c4)c3)CC2)=C(c2ccc(Cl)cc2)C1 [Venetoclax] (first compound max 10 µM, 7x7, partner max 1 µM)	-0.0437	-0.057	0.284	0.242	0.242	0.155	0.122	0.113	0.0548
O=C(c1cc(Cc2n[nH]c(=O)c3ccccc23)ccc1F)N1CCN(C(=O)C2CC2)CC1 [Olaparib] + CN(CC[C@H](CSC1=CC=CC=C1)NC2=C(C=C(C=C2)S(=O)(=O)NC(=O)C3=CC=C(C=C3)N4CCC(CC4)[C@H](C5=CC=CC=C5C6=CC=C(C=C6)Cl)O)S(=O)(=O)C(F)(F)F)CCO [AZD4320] (first compound max 10 µM, 7x7, partner max 1 µM)	-0.0238	-0.0526	0.678	0.13	0.407	0.267	0.165	0.213	0.0513
O=C(c1cc(Cc2n[nH]c(=O)c3ccccc23)ccc1F)N1CCN(C(=O)C2CC2)CC1 [Olaparib] + COc1nnc2ccc(N3CCC(c4ccc(OCCN5CCN(C)C(=O)[C@H]5C)cc4)CC3)nn12 [AZD5153] (first compound max 10 µM, 7x7, partner max 1 µM)	-0.0577	-0.0593	0.709	0.484	0.426	0.558	0.631	0.353	0.236
O=C(c1cc(Cc2n[nH]c(=O)c3ccccc23)ccc1F)N1CCN(C(=O)C2CC2)CC1 [Olaparib] + Cc1c2c(nn1C)CSCc1cc(n(C)n1)CSc1cc(c3ccccc3c1)OCCCc1c(C(=O)O)n(C)c3c-2c(Cl)ccc13 [AZD5991] (first compound max 10 µM, 7x7, partner max 1 µM)	-0.0332	-0.0522	0.261	0.192	0.616	0.166	0.118	0.0979	0.126
Cc1nc(-c2cn3c(n2)-c2ccc(-c4cnn(C(C)(C)C(N)=O)c4)cc2OCC3)n(C(C)C)n1 [Taselisib] + O=C(Nc1ccc2[nH]nc(-c3ccncc3)c2c1)[C@@H]1CCN(CC(=O)N2CCN(c3ccc(-c4ncccn4)cc3)CC2)C1 [SCH772984] (first compound max 10 µM, 7x7, partner max 5 µM)	0.0698	0.0606	0.809	0.563	0.606	0.905	0.838	0.562	0.439
CC1(C)CCC(CN2CCN(c3ccc(C(=O)NS(=O)(=O)c4ccc(NCC5CCOCC5)c([N+](=O)[O-])c4)c(Oc4cnc5[nH]ccc5c4)c3)CC2)=C(c2ccc(Cl)cc2)C1 [Venetoclax] + CS(=O)(=O)CCNCc1ccc(-c2ccc3ncnc(Nc4ccc(OCc5cccc(F)c5)c(Cl)c4)c3c2)o1 [Lapatinib] (first compound max 1 µM, 7x7, partner max 10 µM)	-0.0194	-0.0506	0.909	0.348	0.826	0.917	0.433	0.165	0.13
